Values joined by “and” are separate entries in the source; they are usually repeats but may differ in a detail not shown here. Equal values may be shown once.
Columns and labels:
CCF-STTG1 = experiment: cells
Experimental: (§1) Human neuroblastoma cell lines were cultured in Dulbecco's Modified Eagle Medium (DMEM)/F12 media. Human glioma cells were ordered from American Type Culture Collection (ATCC, Manassas, Va.), and maintained in DMEM with 4×10^−3M L-glutamine, 100 U/ml penicillin, 100 μg/ml streptomycin, and 10% fetal bovine serum (FBS). All experiments were performed at 37° C. in 5% CO2 atmosphere under cell culture conditions. Prior to γ-radiation or exposure to chemotherapeutic agents, the glioma cells were plated at a density of 156 to 8,000 cells per well in 96 well plates to account for differences in growth rates, and to obtain similar cell densities for the experimental manipulations, and cultured overnight. Then cells received different dosages of γ-radiation from a ^60Co source GammaCell 220 (Nordion International Inc, Ontario, Canada) or chemotherapeutic agents for another 2-6 days. Cell cytotoxicity assay was determined by MTS [3-(4,5-dimethylthiazol-2-yl)-5-(3-carboxymethoxyphenyl)-2-(4-sulfophenyl)-2H-tetrazolium, inner salt] Cell Proliferation Assay (Promega, Madison, Wis.) or sulforhodamine B (SRB) assay at the end of the exposure period (47, 48).
Temodar®-resistant cell lines were used to screen for compounds having the ability to decelerate the growth of, or kill, Temodar®-resistant cells. The efficacy of over 15,000 different compounds in the Drug Discovery Core at Pennsylvania State Hershey Medical Center was tested on Temodar®-resistant human neuroblastoma SH-SY5Y and human glioma CCF-STTG1 cell lines with a colorimetric cytotoxicity assay, the sulforhodamine B (SRB) assay (53).
(§2) Chemotype moiety compounds of CC-I were also tested on the Temodar-resistant CCF-STTG1 and Temodar®-sensitive U87-MG cell lines. The glioma cell culture and treatment is as described above.
(§3) The human glioma CCF-STTG1 cell lines were plated at a density of 5,000 cells per well in 96 well plates under standard DMEM cell culture conditions and then exposed to different concentrations of CC-I, merbarone, or ICRF-193 for 5 days. Merbarone and ICRF-193 are both topoisomerase II inhibitors (55, 56).

BREC = experiment: Cytotoxicity, bovine retinal endothelial cells; format: cell-based
Experimental: Bovine retinal endothelial cells (BRECs) were isolated and processed according to a previously published procedure (49, 50). In brief, BREC was grown in MCDB-131 media (Sigma, St) supplemented with 10% FBS, 10 ng/mL EGF, 0.2 mg/mL ENDO GRO (VEC Technologies, Inc.), 0.09 mg/ml heparin, and antibiotic/antimycotic (Invitrogen).

topoisomerase IIα = topoisomerase IIα (Homo sapiens, UniProt P11388); experiment: kDNA decatenation assay; format: biochemical
topoisomerase IIα, sequence (P11388 whole entry): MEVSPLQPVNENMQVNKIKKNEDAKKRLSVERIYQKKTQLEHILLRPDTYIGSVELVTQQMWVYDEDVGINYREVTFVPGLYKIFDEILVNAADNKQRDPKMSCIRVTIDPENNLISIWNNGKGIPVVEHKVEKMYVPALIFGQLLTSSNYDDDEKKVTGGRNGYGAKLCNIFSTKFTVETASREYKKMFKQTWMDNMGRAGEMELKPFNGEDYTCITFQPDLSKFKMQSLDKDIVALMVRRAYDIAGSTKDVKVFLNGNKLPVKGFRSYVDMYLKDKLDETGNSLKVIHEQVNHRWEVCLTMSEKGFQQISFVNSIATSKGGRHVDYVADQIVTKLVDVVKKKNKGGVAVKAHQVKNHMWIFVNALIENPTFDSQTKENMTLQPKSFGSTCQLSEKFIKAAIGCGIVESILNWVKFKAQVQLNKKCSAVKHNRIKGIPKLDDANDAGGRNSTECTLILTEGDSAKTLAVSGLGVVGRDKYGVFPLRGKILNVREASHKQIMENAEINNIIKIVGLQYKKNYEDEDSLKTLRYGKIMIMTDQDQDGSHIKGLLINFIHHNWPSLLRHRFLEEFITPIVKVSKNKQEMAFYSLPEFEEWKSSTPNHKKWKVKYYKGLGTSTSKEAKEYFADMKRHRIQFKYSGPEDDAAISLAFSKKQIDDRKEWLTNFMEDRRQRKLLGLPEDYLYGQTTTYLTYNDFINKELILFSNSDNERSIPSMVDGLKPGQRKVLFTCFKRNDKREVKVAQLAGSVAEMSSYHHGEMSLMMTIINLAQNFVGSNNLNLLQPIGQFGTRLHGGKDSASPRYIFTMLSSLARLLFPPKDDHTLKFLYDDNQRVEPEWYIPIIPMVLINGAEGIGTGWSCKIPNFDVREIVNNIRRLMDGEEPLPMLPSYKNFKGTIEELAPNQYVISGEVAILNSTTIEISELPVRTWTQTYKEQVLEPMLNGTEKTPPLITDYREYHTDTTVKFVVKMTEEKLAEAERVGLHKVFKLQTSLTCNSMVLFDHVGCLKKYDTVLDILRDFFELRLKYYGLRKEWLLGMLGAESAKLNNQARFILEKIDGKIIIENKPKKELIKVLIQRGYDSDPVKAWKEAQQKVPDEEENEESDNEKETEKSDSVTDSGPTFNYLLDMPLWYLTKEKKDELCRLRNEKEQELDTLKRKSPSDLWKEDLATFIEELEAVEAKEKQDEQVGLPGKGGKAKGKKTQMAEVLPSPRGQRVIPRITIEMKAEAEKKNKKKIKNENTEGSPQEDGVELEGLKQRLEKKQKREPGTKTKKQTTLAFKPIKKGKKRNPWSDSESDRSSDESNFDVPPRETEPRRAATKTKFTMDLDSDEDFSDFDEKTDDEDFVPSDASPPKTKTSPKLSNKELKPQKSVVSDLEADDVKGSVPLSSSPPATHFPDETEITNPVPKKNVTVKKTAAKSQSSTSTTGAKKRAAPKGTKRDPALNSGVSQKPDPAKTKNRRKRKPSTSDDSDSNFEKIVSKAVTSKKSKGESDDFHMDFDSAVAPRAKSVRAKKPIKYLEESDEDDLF
Source text: To assess whether CC-I is a human topoisomerase IIα inhibitor, we determined the ability of CC-I to inhibit topoisomerase IIα activity using a kDNA decatenation assay.

U87-MG = experiment: cells
Experimental: as §1, §2, §3

C282Y/SH-SY5Y = experiment: cells; format: cell-based; conditions: C282Y HFE transfected human neuroblastoma SH-SY5Y
Experimental: (§4) Human neuroblastoma cell lines were cultured in Dulbecco's Modified Eagle Medium (DMEM)/F12 media. Human glioma cells were ordered from American Type Culture Collection (ATCC, Manassas, Va.), and maintained in DMEM with 4×10^−3M L-glutamine, 100 U/ml penicillin, 100 μg/ml streptomycin, and 10% fetal bovine serum (FBS). All experiments were performed at 37° C. in 5% CO2 atmosphere under cell culture conditions. Prior to γ-radiation or exposure to chemotherapeutic agents, the glioma cells were plated at a density of 156 to 8,000 cells per well in 96 well plates to account for differences in growth rates, and to obtain similar cell densities for the experimental manipulations, and cultured overnight. […] Cell cytotoxicity assay was determined by MTS [3-(4,5-dimethylthiazol-2-yl)-5-(3-carboxymethoxyphenyl)-2-(4-sulfophenyl)-2H-tetrazolium, inner salt] Cell Proliferation Assay (Promega, Madison, Wis.) or sulforhodamine B (SRB) assay at the end of the exposure period (47, 48).

OVCAR-3 = experiment: Cytotoxicity, ovarian cancer cells; format: cell-based; conditions: human ovarian carcinoma cell line
Experimental: To assess the effect of CC-I on the ovarian cancer cells, the cells were cultured overnight at a density of 5,000 to 10,000 cells per well in 96 well plates. Then the cells were treated with different concentrations of CC-I (Formula IV) or Formula V for another 3-6 days before cytotoxicity assay using MTS or SRB assay. The IC50 or LD50, 50% inhibition or lethal dose, of compounds is also determined using statistical software (GraphPad) as a general indicator of toxicity.

[1] = tested on: U87-MG or CCF-STTG1 glioma cells; experiment: Intracranial orthotopic xenograft brain tumor model; conditions: 25 mg/kg i.p. once a week for 7 weeks
Experimental: The effect of CC-I in an intracranial, orthotopic xenograft brain tumor model was analysed. The caudate putamen region of female, athymic nude mice was injected with 10^6 human U87-MG (Temodar®-sensitive) or CCF-STTG1 (Temodar®-resistant) glioma cells in a volume of 10 μl. At one week post-injection, tumor volume was measured using Ti weighted MRI contrast (7T MR imaging system). Thereafter, CC-I was injected intraperitoneally, once a week for 7 weeks at a concentration of 25 mg/kg body weight. Tumor size was measured weekly. […] Liver and kidney toxicity (total bilirubin, blood urea nitrogen (BUN), creatine, aspartate aminotransferase (SGOT/AST), alanine aminotransferase (SGPT/ALT), and alkaline phosphatase) were also determined using an automated chemistry analyzer machine (Roche Cobase MIRA) and kits manufactured by Thermo Electron.

human topoisomerase I = human topoisomerase I (Homo sapiens, UniProt P11387); experiment: Supercoiled pBR322 DNA relaxation assay; format: biochemical; conditions: concentrations as high as 50 μg/ml
human topoisomerase I, sequence (P11387 whole entry): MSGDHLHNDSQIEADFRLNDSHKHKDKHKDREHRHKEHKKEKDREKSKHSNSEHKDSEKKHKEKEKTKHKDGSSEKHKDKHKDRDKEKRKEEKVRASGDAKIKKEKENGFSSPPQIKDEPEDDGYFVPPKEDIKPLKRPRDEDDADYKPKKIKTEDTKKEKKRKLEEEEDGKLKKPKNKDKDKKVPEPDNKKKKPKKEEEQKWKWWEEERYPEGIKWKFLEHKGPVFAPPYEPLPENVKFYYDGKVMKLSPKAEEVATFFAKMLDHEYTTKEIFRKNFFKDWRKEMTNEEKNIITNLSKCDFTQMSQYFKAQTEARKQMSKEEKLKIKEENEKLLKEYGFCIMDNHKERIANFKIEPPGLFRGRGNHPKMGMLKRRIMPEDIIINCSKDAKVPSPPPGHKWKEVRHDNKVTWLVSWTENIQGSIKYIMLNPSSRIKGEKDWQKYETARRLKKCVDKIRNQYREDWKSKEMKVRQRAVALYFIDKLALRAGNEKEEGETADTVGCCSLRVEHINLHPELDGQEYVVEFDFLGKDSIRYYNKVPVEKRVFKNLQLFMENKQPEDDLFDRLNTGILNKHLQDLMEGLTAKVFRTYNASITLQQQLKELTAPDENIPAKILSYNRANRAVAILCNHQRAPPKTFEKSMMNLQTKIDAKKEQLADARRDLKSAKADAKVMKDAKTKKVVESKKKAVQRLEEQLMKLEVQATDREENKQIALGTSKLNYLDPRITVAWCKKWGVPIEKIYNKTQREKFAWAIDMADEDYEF
Source text: To determine whether CC-I is a specific inhibitor of topoisomerase I or IIα, the ability of CC-I to inhibit topoisomerases I and IIα activity was examined using a supercoiled DNA relaxation assay.

ST88 = experiment: Cytotoxicity, ST88 neurofibroma cells; format: cell-based, human
Experimental: Cells of established neurofibroma cell lines were plated at a density of 2000-4000 cells per well in 96 well plates under standard cell culture conditions (54) and then exposed to CC-I for 2 days.

WT/SH-SY5Y = experiment: Cytotoxicity, WT/SH-SY5Y neuroblastoma; format: cell-based; conditions: wild type HFE transfected human neuroblastoma SH-SY5Y
Experimental: as §4

SW1088 = experiment: Cytotoxicity (MTS or SRB assay), SW1088; format: cell-based, human
Experimental: Human glioma cells were ordered from American Type Culture Collection (ATCC, Manassas, Va.), and maintained in DMEM with 4×10^−3M L-glutamine, 100 U/ml penicillin, 100 μg/ml streptomycin, and 10% fetal bovine serum (FBS). All experiments were performed at 37° C. in 5% CO2 atmosphere under cell culture conditions. […] Then cells received different dosages of γ-radiation from a ^60Co source GammaCell 220 (Nordion International Inc, Ontario, Canada) or chemotherapeutic agents for another 2-6 days. Cell cytotoxicity assay was determined by MTS [3-(4,5-dimethylthiazol-2-yl)-5-(3-carboxymethoxyphenyl)-2-(4-sulfophenyl)-2H-tetrazolium, inner salt] Cell Proliferation Assay (Promega, Madison, Wis.) or sulforhodamine B (SRB) assay at the end of the exposure period (47, 48).

CCF-STTG1 cell tumors = experiment: Athymic nude mouse subcutaneous glioma tumor model; conditions: 25 mg/kg i.p. once a week for 7 weeks
Experimental: The efficacy and toxicity of CC-I was tested in vivo using the athymic nude mouse subcutaneous tumor model. Ten million cells of the Temodar®-sensitive (SW1088) or Temodar®-resistant (CCF-STTG1) malignant glioma cell lines were injected into the flank of one-month-old, female athymic nude mice. When the tumor reached 32 mm^3 in size (week I on graph), CC-I (25 mg/kg) was injected intraperitoneally once a week for 7 weeks.

CCN1C(=O)C(=C/C=C/c2ccco2)C(=O)NC1=S [CC-I]
cytotoxicity compared with merbarone or ICRF-193 (CCF-STTG1; CCF-STTG1, 5 days): more cytotoxic
IC50 (CCF-STTG1; read-out: IC50 (μM) CCF-STTG1, human astrocytoma or glioblastoma cell line, Temodar-resistant): 4.3 µM
IC50 (BREC; bovine retinal endothelial cell): 46.9 µM
toxicity to bovine retinal endothelial cells (BREC) (BREC; model for the blood-brain-barrier): not toxic
concentration completely inhibiting topoisomerase IIα catalyzed kDNA decatenation (topoisomerase IIα): greater than 6 μg/ml
cytotoxicity compared with merbarone or ICRF-193 (U87-MG; U87-MG, 5 days): more cytotoxic
IC50 (U87-MG; read-out: IC50 (μM) U87-MG, human astrocytoma or glioblastoma cell line): 3.9 µM
IC50 (C282Y/SH-SY5Y): 1.8 µM
IC50 (OVCAR-3): 3.5 µM
body weight of mice [1]: not affected
liver and kidney toxicity (blood chemistry) [1]: no liver or kidney toxicity
survival of tumor-bearing mice [1]: extended survival
intracranial tumor growth ([1]; Temodar-resistant and -sensitive tumors): inhibited tumor growth
effect on topoisomerase I activity (human topoisomerase I): no effect
LD50 (ST88; ST88 neurofibroma cells, 2 days exposure): 2.1 µg/mL
IC50 (ST88; human neurofibroma cell line): 7.5 µM
IC50 (WT/SH-SY5Y): 3.3 µM
LD50 (SW1088; SW-1088 astrocytoma cells): ≈ 0.5 μg/ml and ~1.7 μM
IC50 (SW1088; human astrocytoma or glioblastoma cell line, read-out: IC50 (μM) SW1088): 1.7 µM
body weight of the mice (CCF-STTG1 cell tumors): not affected
liver or kidney toxicity (CCF-STTG1 cell tumors): No liver or kidney toxicity
growth of subcutaneous tumors (CCF-STTG1 cell tumors; CCF-STTG1 tumors, nude mice): completely inhibited

From patent US9994554B2, “Barbiturate and thiobarbiturate compounds for use in cancer therapy” (NUHOPE, LLC, priority 2011, dated 2018)
